The values below come from patent publication US20250325533A1, “TRYPTAMINE COMPOSITIONS FOR ENHANCING NEURITE OUTGROWTH” (TURTLE BEAR HOLDINGS, LLC, priority 2016, published 2025).

Each structure is given as a SMILES string. “Also recorded” adds a separate entry of the source.

Assay [1] has as its system inflammation in the lungs. To be noted: in vivo; cited from earlier work.
Assay [2] concerns Rat Induced Pluripotent Stem Cell (iPSC) neurons / cortical neurons from rat embryo. Put plainly: Neurite outgrowth and length in cultured neurons, beta III tubulin immunostaining, High-Content Screening (Neurofit). In kind it is cell-based. The conditions noted are these: day 10. On the procedure: Experiments were conducted to evaluate the neurotrophic effects of several purified tryptamines, H. erinaceum extracts, and the tryptamines combined with selected extracts of H. erinaceum. The tryptamines, baeocystin, norbaeocystin, and norpsilocin, were evaluated at final concentrations of 0.3 μg/mL, 1 μg/mL, 3 μg/mL, and 10 μg/mL. The experiments analyzed the H. erinaceum growth medium (rice or rice and oat hull fiber), the days of cultivation, the extract solvent (water, ethanol, or ethyl acetate), and the final concentration of the extract (31.3 μg/mL, 62.5 μg/mL, 125 μg/mL or 250 μg/mL). Finally, combinations of the three tryptamines and representative H. erinaceum extracts were combined and evaluated.
Experiments were conducted by Neurofit Contract Research Organization in Illkirch-Graffenstaden, France.
The following protocol was performed for each independent culture. Six culture experiments were performed for each condition.
Results are expressed as mean (±Standard Deviation).

Assay [3] relates to hallucinogenic effects in humans. The conditions noted are these: human, cited from earlier work.
Assay [4] deals with PC12 cells (conditioned media from 1321N1 human astrocytoma cells). The experiment in a line: Neurite outgrowth of PC12 cells treated with conditioned media from 1321N1 cells. In kind it is cell-based, rat. The conditions noted are these: conditioned media from treated 1321N1 cells; n=3. An excerpt:
1321N1 human brain astrocytoma cells are known to excrete neurologically beneficial compounds when stimulated with neurotrophic compounds and fungal extracts including lion's mane (Mori et al., Biological and Pharmaceutical Bulletin, 9: 1727-1732 (2008)). While some fungi have well established mechanisms by which they benefit neurological health, little is known about the role of psilocybin analogs specifically. Generally following the protocol of Mori et al., 2008, 1321N1 human astrocytoma cells were treated with psilocybin analogs, and conditioned media was collected and applied to differentiated rat pheochromocytoma PC12 cells to determine the resulting impact on neurite outgrowth.

Assay [5] relates to nerve growth factor (NGF) protein. The experiment in a line: ELISA of NGF protein in 1321N1 cells. The format is cell-based. The conditions noted are these: human 1321N1 cells; vs vehicle control; n=3; p<0.05. An excerpt: Accordingly, preliminary research has started to reveal the mechanisms by which psilocybin analogs may confer neurotrophic benefits that facilitate neurite outgrowth.
(§1) See Ly et al., “Psychedelics Promote Structural and Functional Neural Plasticity,” Cell Rep.
(In general: ELISA stands for enzyme-linked immunosorbent assay.)

Assay [6] has as its system anti-inflammatory cytokine IL-10. Put plainly: ELISA of IL-10 in 1321N1 cells. To be noted: human 1321N1 brain cells. In kind it is cell-based.
Text: as §1

For `COc1cc(C[C@@H](C)N)c(OC)cc1I` [(R)-2,5-dimethoxy-4-iodoamphetamine], the “inflammation in the lungs” value in assay [1] was “prevent and reverse inflammation”.

As to `CNCCc1c[nH]c2cccc(OP(=O)(O)O)c12` [baeocystin, 4-phosphoryloxy-N-methyltryptamine], the “Neurite length per neuron, % of control, Avg.” value in assay [2] (tryptamine 0.3 μg/mL) is 119.24%; in assay [2] (tryptamine 1 μg/mL), 112.34%; in assay [2] (tryptamine 3 μg/mL), 118.42%; in assay [2] (tryptamine 10 μg/mL), 109.61%. The “Neurites per neuron, % of control, Avg.” value in assay [2] (tryptamine 0.3 μg/mL) worked out at 94.46%; in assay [2] (tryptamine 1 μg/mL), 93.66%; in assay [2] (tryptamine 3 μg/mL), 97.18%; in assay [2] (tryptamine 10 μg/mL) it was 96.87%. Further, the hallucinogenic effect result in assay [3] (4 mg consumed, anecdotal (Gartz 1991)) is “gentle hallucinogenic experience”. Also, in assay [3] (oral consumption of 10 mg and 20 mg), the hallucinogenic effects entry was “did not produce any hallucinogenic effects”. The “neurite outgrowth induced by conditioned media” value (“neurite outgrowth induced” below) in assay [4] is “induce neurite outgrowth”.

`NCCc1c[nH]c2cccc(OP(=O)(O)O)c12` [norbaeocystin, 4-phosphoryloxy-tryptamine]: the “expression of NGF protein” value in assay [5] is given as “increased expression of NGF protein; also recorded: induces the expression; also recorded: induction of NGF protein”. In addition, the “neurite outgrowth induced” value in assay [4] is given as “induce neurite outgrowth”.

On to `CNCCc1c[nH]c2cccc(O)c12` [norpsilocin, 4-hydroxy-N-methyl-tryptamine], for which the “expression of IL-10” value in assay [6] is “induces the expression”. The “neurite outgrowth compared with vehicle control and other treatments (in words)” value in assay [2] (at the concentrations tested) is recorded as “did not perform better than vehicle control”. Moreover, the “Neurite length per neuron, % of control, Avg.” value worked out at 107.70% in assay [2] (tryptamine 0.3 μg/mL), 101.13% in assay [2] (tryptamine 1 μg/mL), 73.80% in assay [2] (tryptamine 3 μg/mL) and 7.65% in assay [2] (tryptamine 10 μg/mL). For the same compound, the “Neurites per neuron, % of control, Avg.” value is on record as 83.77% in assay [2] (tryptamine 0.3 μg/mL), 87.18% in assay [2] (tryptamine 1 μg/mL), 79.36% in assay [2] (tryptamine 3 μg/mL) and 27.71% in assay [2] (tryptamine 10 μg/mL). Further, the “neurite outgrowth induced” value in assay [4] is “induce neurite outgrowth”.
